Results: PubChem BioAssay (NCI)
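In this assay, cells in 96-well plates receive the compound at five concentrations for 48 hours. Endpoints are linearly interpolated between the surrounding concentrations. At the GI50, growth is halved. At the TGI there is no net growth.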 Where a SMILES comes first, the peptide text is derived from it.

Columns and labels:
Test in all cases: NCI-60 cell line screen, 48 h
MDA-MB-435 = test system: MDA-MB-435
SF-268 CNS = test system: SF-268 CNS
OVCAR-4 ovarian = test system: OVCAR-4 ovarian
K-562 leukemia = test system: K-562 leukemia
HS 578T breast = test system: HS 578T breast
UO-31 renal = test system: UO-31 renal
SR leukemia = test system: SR leukemia
786-0 renal = test system: 786-0 renal
SK-MEL-28 melanoma = test system: SK-MEL-28 melanoma
EKVX NSCLC = test system: EKVX NSCLC
MOLT-4 leukemia = test system: MOLT-4 leukemia
BT-549 breast = test system: BT-549 breast
SN12C renal = test system: SN12C renal
A498 renal = test system: A498 renal
U251 CNS = test system: U251 CNS
SNB-75 CNS = test system: SNB-75 CNS
DU-145 prostate = test system: DU-145 prostate
NCI-H522 lung = test system: NCI-H522 lung
SNB-19 CNS = test system: SNB-19 CNS
SF-295 CNS = test system: SF-295 CNS
A549 NSCLC = test system: A549 NSCLC
HOP-62 NSCLC = test system: HOP-62 NSCLC
OVCAR-8 ovarian = test system: OVCAR-8 ovarian
CAKI-1 renal = test system: CAKI-1 renal
MCF7 breast = test system: MCF7 breast
OVCAR-5 ovarian = test system: OVCAR-5 ovarian
HL-60(TB) leukemia = test system: HL-60(TB) leukemia
TK-10 renal = test system: TK-10 renal
IGROV1 ovarian = test system: IGROV1 ovarian
CCRF-CEM leukemia = test system: CCRF-CEM leukemia
LOX IMVI melanoma = test system: LOX IMVI melanoma
PC-3 prostate = test system: PC-3 prostate
UACC-62 melanoma = test system: UACC-62 melanoma
MALME-3M melanoma = test system: MALME-3M melanoma
SK-MEL-5 melanoma = test system: SK-MEL-5 melanoma
NCI-H460 lung = test system: NCI-H460 lung
T-47D breast = test system: T-47D breast
NCI-H23 lung = test system: NCI-H23 lung
HT29 colon = test system: HT29 colon
NCI-H226 lung = test system: NCI-H226 lung
HCT-116 colon = test system: HCT-116 colon
HOP-92 NSCLC = test system: HOP-92 NSCLC
RXF 393 renal = test system: RXF 393 renal
KM12 colon = test system: KM12 colon
M14 melanoma = test system: M14 melanoma
SW-620 colon = test system: SW-620 colon
UACC-257 melanoma = test system: UACC-257 melanoma
OVCAR-3 ovarian = test system: OVCAR-3 ovarian
HCC-2998 colon = test system: HCC-2998 colon
SK-MEL-2 melanoma = test system: SK-MEL-2 melanoma
COLO 205 colon = test system: COLO 205 colon
SF-539 CNS = test system: SF-539 CNS
RPMI-8226 leukemia = test system: RPMI-8226 leukemia
HCT-15 colon = test system: HCT-15 colon
ACHN renal = test system: ACHN renal
NCI/ADR-RES ovarian = test system: NCI/ADR-RES ovarian
SK-OV-3 ovarian = test system: SK-OV-3 ovarian
MDA-MB-231 breast = test system: MDA-MB-231 breast

## CCC(C)C1NC(=O)C(CCCCN)NC(=O)C(CCCCN)NC(=O)C(CC(C)C)NC(=O)C(CCCCN)NC(=O)C(C(C)CC)NC(=O)C(C(C)C)NC(=O)C(C(C)CC)NC(=O)C(CCCCN)NC(=O)C(CCCCN)NC(=O)C(C)NC(=O)C(CCCCN)NC(=O)C(CC(C)C)NC1=O (stereo unspecified) (cyclo(AKKIVIKLKKILK); configuration not given here)
MDA-MB-435
  GI50: 1770 nM
  TGI: 3800 nM
SF-268 CNS
  GI50: 2590 nM
  TGI: 11300 nM
OVCAR-4 ovarian
  GI50: 1280 nM
  TGI: 13400 nM
K-562 leukemia
  GI50: 1310 nM
  TGI: 5470 nM
HS 578T breast
  GI50: 2000 nM
  TGI: 5660 nM
UO-31 renal
  GI50: 1380 nM
  TGI: 2740 nM
SR leukemia
  GI50: 1860 nM
  TGI: 5020 nM
786-0 renal
  GI50: 1800 nM
  TGI: 3640 nM
SK-MEL-28 melanoma
  GI50: 1970 nM
  TGI: 4610 nM
EKVX NSCLC
  GI50: 1330 nM
  TGI: 6000 nM
MOLT-4 leukemia
  GI50: 1700 nM
  TGI: 5290 nM
BT-549 breast
  GI50: 1790 nM
  TGI: 3960 nM
SN12C renal
  GI50: 1940 nM
  TGI: 6460 nM
A498 renal
  GI50: 1660 nM
  TGI: 3840 nM
U251 CNS
  GI50: 1590 nM
  TGI: 3250 nM
SNB-75 CNS
  GI50: 1720 nM
  TGI: 4350 nM
DU-145 prostate
  GI50: 2990 nM
  TGI: 10700 nM
NCI-H522 lung
  GI50: 1740 nM
  TGI: 4700 nM
SNB-19 CNS
  GI50: 2930 nM
  TGI: 14000 nM
SF-295 CNS
  GI50: 1140 nM
  TGI: 2520 nM
A549 NSCLC
  GI50: 2260 nM
  TGI: 9640 nM
HOP-62 NSCLC
  GI50: 1760 nM
  TGI: 3970 nM
OVCAR-8 ovarian
  GI50: 1730 nM
  TGI: 6400 nM
CAKI-1 renal
  GI50: 1560 nM
  TGI: 3760 nM
MCF7 breast
  GI50: 1870 nM
  TGI: 5980 nM
OVCAR-5 ovarian
  GI50: 2330 nM
  TGI: 8180 nM
HL-60(TB) leukemia
  GI50: 2420 nM
  TGI: 6930 nM
TK-10 renal
  GI50: 1870 nM
  TGI: 4630 nM
IGROV1 ovarian
  GI50: 1970 nM
  TGI: 6180 nM
CCRF-CEM leukemia
  GI50: 2150 nM
  TGI: 9300 nM
LOX IMVI melanoma
  GI50: 1730 nM
  TGI: 3200 nM
PC-3 prostate
  GI50: 779 nM
  TGI: 8520 nM
UACC-62 melanoma
  GI50: 1270 nM
  TGI: 2940 nM
MALME-3M melanoma
  GI50: 1450 nM
  TGI: 3300 nM
SK-MEL-5 melanoma
  GI50: 1010 nM
  TGI: 2190 nM
NCI-H460 lung
  GI50: 1850 nM
  TGI: 4280 nM
T-47D breast
  GI50: 1690 nM
  TGI: 6700 nM
NCI-H23 lung
  GI50: 704 nM
  TGI: 4450 nM
HT29 colon
  GI50: 2930 nM
  TGI: 10800 nM
NCI-H226 lung
  GI50: 1210 nM
  TGI: 3370 nM
HCT-116 colon
  GI50: 1460 nM
  TGI: 3070 nM
HOP-92 NSCLC
  GI50: 1270 nM
  TGI: 3240 nM
RXF 393 renal
  GI50: 1490 nM
  TGI: 3010 nM
KM12 colon
  GI50: 2550 nM
  TGI: 8090 nM
M14 melanoma
  GI50: 1600 nM
  TGI: 3460 nM
SW-620 colon
  GI50: 1750 nM
  TGI: 3590 nM
UACC-257 melanoma
  GI50: 2420 nM
  TGI: 7570 nM
OVCAR-3 ovarian
  GI50: 1620 nM
  TGI: 3630 nM
HCC-2998 colon
  GI50: 2650 nM
  TGI: 8520 nM
SK-MEL-2 melanoma
  GI50: 2060 nM
  TGI: 4880 nM
COLO 205 colon
  GI50: 1740 nM
  TGI: 3650 nM
SF-539 CNS
  GI50: 2050 nM
  TGI: 4380 nM
RPMI-8226 leukemia
  GI50: 1110 nM
  TGI: 3740 nM
HCT-15 colon
  GI50: 1600 nM
  TGI: 3270 nM
ACHN renal
  GI50: 2360 nM
  TGI: 6840 nM
NCI/ADR-RES ovarian
  GI50: 1070 nM
  TGI: 5610 nM
SK-OV-3 ovarian
  GI50: 2090 nM
  TGI: 5880 nM
MDA-MB-231 breast
  GI50: 1720 nM
  TGI: 4250 nM
